Test system: AP-1
Experiment: Effect of the zinc salt of acylamino acid on AP-1 activation by ultraviolet light (gel shift assay)
Assay type: cell-based
Conditions: human dermal fibroblasts; 50 μM test compound added 18 hours before UVA 20 J/cm2; nuclear protein collected after 4 to 5 hours
Description: After 18 hours, the culture medium was replaced with a phenol red-free medium. By using […]-80 (manufactured by Toshiba Medical Supply Co., Ltd.), the fibroblasts were irradiated with ultraviolet light (UVA: 20 J/cm2). After 4 to 5 hours, the cells were collected, and a nuclear protein was extracted by a standard method. With regard to the obtained nuclear protein, activated AP-1 was detected by a gel shift assay. By measuring the radioactivity value of the AP-1 band using a bioimaging analyzer, BAS2000 (manufactured by Fuji Film Co., Ltd.), the amount of AP-1 was quantified. The inhibition ratio of activation of AP-1 of the test compound was calculated by the following formula. […] A1: radioactivity value of AP-1 band with addition of test compound […] A3: radioactivity value of AP-1 band without addition of test compound and without ultraviolet irradiation

Structure (SMILES) | Inhibition ratio of activation of AP-1
N[C@@H](CCC(=O)[O-])C(=O)[O-].[Zn+2] [Zinc salt of L-glutamic acid] | 2.4%
CCCCCCCCCCCC(=O)NCC(=O)[O-].CCCCCCCCCCCC(=O)NCC(=O)[O-].[Zn+2] [Zinc salt of N-lauroyl glycine] | 59.2%
CCCCCCCCCCCC(=O)N[C@@H](CCC(=O)[O-])C(=O)[O-].[Zn+2] [Zinc salt of N-lauroyl-L-glutamic acid] | 89.6%
CCCCCCCCCCCC(=O)N[C@@H](Cc1c[nH]cn1)C(=O)[O-].CCCCCCCCCCCC(=O)N[C@@H](Cc1c[nH]cn1)C(=O)[O-].[Zn+2] [Zinc salt of N-lauroyl-L-histidine] | 54.8%
NCC(=O)[O-].NCC(=O)[O-].[Zn+2] [Zinc salt of glycine] | −72.8%
CCCCCCCCCCCC(=O)[O-].CCCCCCCCCCCC(=O)[O-].[Zn+2] [Zinc salt of lauric acid] | 9.1%

From patent US20070099888A1, “Inflammation Inhibitor Comprising Zinc Salt of Acylamino Acid” (priority 2004, published 2007)
